The source of these data is patent US20230116114A1, “COMPOUNDS AND COMPOSITIONS FOR TREATING CNS DISORDERS” (Blue Oak Pharmaceuticals, Inc., priority 2020, published 2023).

Broadly, the minimal effective dose is the smallest amount tested that counted as effective.

The test system of this assay is mice. Description: SmartCube in vivo neuropharmacological behavioral assay. The procedure, abridged:
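Mice dosed i.p. in NMP (Pharmasolve) 15 min before automated video behavioral testing at several doses (e.g., 0.3-30 mpk). Signatures compared to reference drug classes giving per-class probabilities (0-100); MED is the lowest dose with ≥50% total activity.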

The mark [1] stands for this setting: SmartCube, i.p. 15 min before test, result at the MED.

Each structure is given as a SMILES string. Counter-ions that a name gives are not always drawn.

Regarding `CC([C@H](C)F)N1C2CCCC1c1ccccc12` (stereo in doubt) [Compound 24, 12-(3-Fluorobutan-2-yl)-12-azatricyclo[6.3.1.0^2,7]dodeca-2,4,6-triene hydrochloride], where the note is “Mus musculus, ip, 0.25 h, dose having 50% or more total activity in SmartCube, i.p., read-out: MED (minimal effective dose)”, the minimal effective dose is 10 to 30 mg/kg. Also, under setting [1], the “AD: antidepressant (percent probability)” value is recorded as “+++ (25% ≤ X < 50%)”, the “AG: analgesic (percent probability)” value is “+ (LOQ ≤ X < 5%)”, the “AP: antipsychotic (percent probability)” value is “+ (LOQ ≤ X < 5%)” and the “AX: anxiolytic (percent probability)” value is given as “+ (LOQ ≤ X < 5%)”. Moreover, under setting [1], the “CE: cognitive enhancer (percent probability)” value is listed as “+ (LOQ ≤ X < 5%)”, the “HA: hallucinogenic (percent probability)” value was “+ (LOQ ≤ X < 5%)”, the “MS: mood stabilizer (percent probability)” value is “+ (LOQ ≤ X < 5%)” and the “PS (percent probability)” value is recorded as “++ (5% ≤ X < 25%)”. Besides, under setting [1], the “SD: sedative hypnotic (percent probability)” value is “+ (LOQ ≤ X < 5%)”, the “SE: side effects (percent probability)” value is listed as “+ (LOQ ≤ X < 5%)”, the “UN: uncharacterized CNS activity (percent probability)” value is recorded as “+ (LOQ ≤ X < 5%)” and the “XG: anxiogenic (percent probability)” value was “+ (LOQ ≤ X < 5%)”.
